Experimental data: patent US11319324B2, “Pyrazolo-pyrrolo-pyrimidine-dione derivatives as P2X3 inhibitors” (Bayer Aktiengesellschaft, priority 2017, dated 2022)
Where a name gives a salt, the structure may show the parent alone.

Biological target: T1, human P2X3 receptor (Homo sapiens, UniProt P56373)
T1 sequence (P56373 1-397): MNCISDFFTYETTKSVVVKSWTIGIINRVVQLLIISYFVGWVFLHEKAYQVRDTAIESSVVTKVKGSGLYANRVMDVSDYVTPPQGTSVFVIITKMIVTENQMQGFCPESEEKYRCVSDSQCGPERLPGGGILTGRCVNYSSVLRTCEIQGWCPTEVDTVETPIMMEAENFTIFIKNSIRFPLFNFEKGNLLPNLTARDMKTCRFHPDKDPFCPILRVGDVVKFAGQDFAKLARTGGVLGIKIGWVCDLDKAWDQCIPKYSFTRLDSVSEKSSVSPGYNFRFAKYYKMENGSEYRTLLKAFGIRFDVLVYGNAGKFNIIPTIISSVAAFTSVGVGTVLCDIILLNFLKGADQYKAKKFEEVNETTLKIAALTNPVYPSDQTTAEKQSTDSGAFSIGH
Experiment: Intracellular calcium measurement to assess antagonist activity at human P2X3 receptors (hP2X3 CHO), photina luminescence
Assay type: cell-based
Set-up: expressed in transfected cells; host or cells: Chinese hamster ovary (CHO) cells
Details: column 2), CHO cells, agonist α,β-methylene-ATP at EC50
Protocol: 2) Intracellular Calcium Measurement to Assess Antagonist Activity at Human P2X3 Receptors (hP2X3 CHO)
The determination of antagonistic activity at the P2X3 receptor of the compounds of the invention was performed by use of a recombinant cell line. This cell line derives originally from the Chinese hamster ovary (CHO) cell line (Tjio J. H.; Puck T. T., 1958, J. Exp. Med. 108: 259-271). The cell line is stably transfected with the human P2X3 receptor and a calcium-sensitive photoprotein, mitochondrial photina, which, after reconstitution with the cofactor coelenterazine, emits light in dependence of calcium binding [Bovolenta S, Foti M, Lohmer S, Corazza S., J Biomol Screen. 2007 August; 12(5):694-704]. The strength of the photina luminescence signal corresponds to the level of receptor activation upon agonist binding. An inhibitor would decrease the signal depending on its potency and concentration. Bioluminescence was detected using a suitable luminometer [Milligan G, Marshall F, Rees S, Trends in Pharmacological Sciences 17,235-237 (1996)].
On the day before the assay, the cells were plated out in culture medium (DMEM/F12 (PAN, P04-41451), 10% FCS) in 384-well microtiter plates and kept in a cell incubator (96% humidity, 5% v/v CO2, […]). On the day of the assay medium was replaced by 2 mM Ca-tyrode buffer containing 5 μg/ml coelenterazine. Plates were incubated for 3 hours at 37° C. (96% humidity, 5% v/v CO2). […] The resulting light signal was measured immediately in the luminometer.

IC50	Structure (SMILES)
10 nM	CCOC(=O)c1cc2n(CC(=O)Nc3ccc(F)cn3)c3c(c(=O)n2n1)CN(Cc1ccccn1)C3=O [Example 124]
5 nM	Cc1cnc(-c2cc3n(CC(=O)Nc4ccc(F)cn4)c4c(c(=O)n3n2)CN(C(C)C)C4=O)c(C)c1 [Example 166, 2-[2-(3,5-dimethylpyridin-2-yl)-5,8-dioxo-6-(propan-2-yl)-5,6,7,8-tetrahydro-4H-pyrazolo[1,5-a]pyrrolo[3,4-d]pyrimidin-4-yl]-N-(5-fluoropyridin-2-yl)acetamide]
205 nM	CCc1cc2n(CC(=O)Nc3ccc(F)cn3)c3c(c(=O)n2n1)CN(CC1CN(C(=O)OC(C)(C)C)C1)C3=O [Example 115]
63 nM	COC[C@H](C)N1Cc2c(n(CC(=O)Nc3ccc(F)cn3)c3cc(C(=O)Nc4ccon4)nn3c2=O)C1=O [Example 215]
57 nM	CC(C)N1Cc2c(n(CC(=O)Nc3ccc(F)cn3)c3cc([C@@H]4CCOC4)nn3c2=O)C1=O (single isomer, unassigned) [Example 280, 2-{5,8-dioxo-2-[oxolan-3-yl]-6-(propan-2-yl)-5,6,7,8-tetrahydro-4H-pyrazolo[1,5-a]pyrrolo[3,4-d]pyrimidin-4-yl}-N-(5-fluoropyridin-2-yl)acetamide]
53 nM	O=C(Cn1c2c(c(=O)n3nc(-c4ccncc4)cc13)CN(Cc1ccc(F)cc1)C2=O)Nc1ccc(F)cn1 [Example 129]
25 nM	CC(C)N1Cc2c(n(CC(=O)Nc3ccc(F)cn3)c3cc(C(=O)Nc4ccccc4Cl)nn3c2=O)C1=O [Example 203]
14 nM	O=C(Cn1c2c(c(=O)n3nc(-c4ccncc4)cc13)CN(Cc1ccccn1)C2=O)Nc1ccc(F)cn1 [Example 130]
123 nM	CC(C)N1Cc2c(n(CC(=O)Nc3ccc(F)cn3)c3cc(C(=O)Nc4ncco4)nn3c2=O)C1=O [Example 209]
30 nM	COC[C@H](C)N1Cc2c(n(CC(=O)Nc3ccc(F)cn3)c3cc(C(=O)Nc4ccccc4F)nn3c2=O)C1=O [Example 221]
225 nM	COC[C@H](C)N1Cc2c(n(CC(=O)Nc3ccc(F)cn3)c3cc(C#N)nn3c2=O)C1=O [Example 148]
57 nM	CCc1cc2n(CC(=O)Nc3ccc(F)cn3)c3c(c(=O)n2n1)CN(CC)C3=O [Example 126]
625 nM	CC(C)N1Cc2c(n(CC(=O)Nc3ccc(F)cn3)c3cc(N)nn3c2=O)C1=O [Example 241, 2-[2-amino-5,8-dioxo-6-(propan-2-yl)-5,6,7,8-tetrahydro-4H-pyrazolo[1,5-a]pyrrolo[3,4-d]pyrimidin-4-yl]-N-(5-fluoropyridin-2-yl)acetamide hydrochloride (1:1)]
240 nM	CCc1cc2n(CC(=O)Nc3ccc(F)cn3)c3c(c(=O)n2n1)CN(CC(=O)N(C)CC1CC1)C3=O [Example 293]
28 nM	CC(C)N1Cc2c(n(CC(=O)Nc3ccc(F)cn3)c3cc(C(=O)Nc4ccc(F)cc4)nn3c2=O)C1=O [Example 208]
247 nM	CCc1cc2n(CC(=O)Nc3ccc(F)cn3)c3c(c(=O)n2n1)CN(CC(=O)N(C)C1CC1)C3=O [Example 294]
28 nM	CC(C)N1Cc2c(n(CC(=O)Nc3ccc(F)cn3)c3cc(C(=O)Nc4ncccn4)nn3c2=O)C1=O [Example 210]
94 nM	CCOC(=O)c1cc2n(CC(=O)Nc3ccc(F)cn3)c3c(c(=O)n2n1)CN(C1CCOCC1)C3=O [Example 122]
1400 nM	CC(C)N1Cc2c(n(CC(=O)Nc3ccc(F)cn3)c3cc(C(=O)O)nn3c2=O)C1=O [Example 84, 4-{2-[(5-Fluoropyridin-2-yl)amino]-2-oxoethyl}-5,8-dioxo-6-(propan-2-yl)-5,6,7,8-tetrahydro-4H-pyrazolo[1,5-a]pyrrolo[3,4-d]pyrimidine-2-carboxylic acid]

IC50	Structure (SMILES)
53 nM	CC(C)N1Cc2c(n(CC(=O)Nc3ccc(F)cn3)c3cc(CN4CCCC4=O)nn3c2=O)C1=O [Example 232, 2-{5,8-dioxo-2-[(2-oxopyrrolidin-1-yl)methyl]-6-(propan-2-yl)-5,6,7,8-tetrahydro-4H-pyrazolo[1,5-a]pyrrolo[3,4-d]pyrimidin-4-yl}-N-(5-fluoropyridin-2-yl)acetamide]
120 nM	CNc1cc2n(CC(=O)Nc3ccc(F)cn3)c3c(c(=O)n2n1)CN([C@@H](C)COC)C3=O [Example 179]
18 nM	O=C(Cn1c2c(c(=O)n3nc(-c4ccncc4)cc13)CN(CCN1CCOCC1)C2=O)Nc1ccc(F)cn1 [Example 132]
59 nM	CNc1cc2n(CC(=O)Nc3ccc(F)cn3)c3c(c(=O)n2n1)CN(C(C)C)C3=O [Example 174]
225 nM	O=C(Cn1c2c(c(=O)n3nc(Br)cc13)CN(CCN1CCOCC1)C2=O)Nc1ccc(F)cn1 [Example 111]
1950 nM	CCc1cc2n(CC(=O)Nc3ccc(F)cn3)c3c(c(=O)n2n1)CN(C1CCNCC1)C3=O [Example 237]
1150 nM	CCc1cc2n(CC(=O)Nc3ccc(F)cn3)c3c(c(=O)n2n1)CN(C1CCN(C2CCC2)C1)C3=O (centres unmarked) [Example 254]
93 nM	CC(C)N1Cc2c(n(CC(=O)Nc3ccc(F)cn3)c3cc(C(=O)Nc4ccc(Cl)cn4)nn3c2=O)C1=O [Example 213]
470 nM	CCc1cc2n(CC(=O)Nc3ccc(F)cn3)c3c(c(=O)n2n1)CN(C1CCS(=O)(=O)CC1)C3=O [Example 119]
415 nM	CCc1cc2n(CC(=O)Nc3ccc(F)cn3)c3c(c(=O)n2n1)CN(CC(=O)N1CCOCC1)C3=O [Example 291, 2-{2-ethyl-6-[2-(morpholin-4-yl)-2-oxoethyl]-5,8-dioxo-5,6,7,8-tetrahydro-4H-pyrazolo[1,5-a]pyrrolo[3,4-d]pyrimidin-4-yl}-N-(5-fluoropyridin-2-yl)acetamide]
47 nM	CC(C)N1Cc2c(n(CC(=O)Nc3ccc(F)cn3)c3cc(C(=O)Nc4cccc(F)c4)nn3c2=O)C1=O [Example 206]
580 nM	CCc1cc2n(CC(=O)Nc3ccc(F)cn3)c3c(c(=O)n2n1)CN(CC1CN(C(C)=O)C1)C3=O [Example 268]
22 nM	CC(C)N1Cc2c(n(CC(=O)Nc3ccc(F)cn3)c3cc(C(=O)Nc4cccnn4)nn3c2=O)C1=O [Example 212]
113 nM	CCc1cc2n(CC(=O)Nc3ccc(F)cn3)c3c(c(=O)n2n1)CN(CC1CCC1)C3=O [Example 113]
230 nM	CCc1cc2n(CC(=O)Nc3ccc(F)cn3)c3c(c(=O)n2n1)CN(C1CNC1)C3=O [Example 243]
225 nM	N#Cc1cc2n(CC(=O)Nc3ccc(F)cn3)c3c(c(=O)n2n1)CN(CCN1CCOCC1)C3=O [Example 147]
33 nM	CC(C)N1Cc2c(n(CC(=O)Nc3ccc(F)cn3)c3cc(C4=CCS(=O)(=O)CC4)nn3c2=O)C1=O [Example 145, 2-[2-(1,1-dioxo-1,2,3,6-tetrahydro-1lambda^6-thiopyran-4-yl)-5,8-dioxo-6-(propan-2-yl)-5,6,7,8-tetrahydro-4H-pyrazolo[1,5-a]pyrrolo[3,4-d]pyrimidin-4-yl]-N-(5-fluoropyridin-2-yl)acetamide]
135 nM	COc1ccccc1NC(=O)c1cc2n(CC(=O)Nc3ccc(F)cn3)c3c(c(=O)n2n1)CN(C(C)C)C3=O [Example 202]
70 nM	COC[C@H](C)N1Cc2c(n(CC(=O)Nc3ccc(F)cn3)c3cc(C(=O)Nc4ncccn4)nn3c2=O)C1=O [Example 217]
